Reference: PMC7497180 (Chembiochem, 2020)
“Also recorded” adds a separate entry of the source.

Legend:
THP1‐NTR^+ cells [1] = test: MTS cell viability assay, NTR-expressing cells; format: cell-based
THP1^wt cells [2] = test: CD86-based cell assay; details: 72 h, read-out: THP1^wt CD86^+ EC50
THP1‐NTR^+ cells [3] = test: CD86-based cell assay; details: for EC50: 72 h, read-out: THP1‐NTR^+ CD86^+ EC50; for Selectivity window THP1^wt / THP1‐NTR^+: CD86 EC50 ratio
THP1^wt cells [4] = test: Colony forming unit
THP1‐NTR^+ cells [5] = test: Colony forming unit; format: cell-based; details: for EC50: read-out: THP1‐NTR^+ CFU EC50; for Selectivity window THP1^wt / THP1‐NTR^+: CFU EC50 ratio
THP1^wt cells [6] = test: MTS cell viability assay, non-transfected cells; format: cell-based
LSD1 = LSD1 (Homo sapiens, UniProt O60341); details: cited from earlier work
THP1‐NTR^+ cells [7] = test: Luminescent measurement of NTR activity in cells, NTR-expressing; format: cell-based; details: 25 μM, 60 min
THP1^wt cells [8] = test: Luminescent measurement of NTR activity in cells, non-transfected; format: cell-based; details: 25 μM, 60 min
recombinant NTR = test: Luminescent probe activation by recombinant NTR in vitro; format: biochemical, E. coli; details: low NTR concentrations (18–30 nM)
[9] = target: T1, nitroreductase NfsB (NTR) (Escherichia coli, UniProt P38489); format: biochemical, E. coli
T1 sequence (P38489 1-217): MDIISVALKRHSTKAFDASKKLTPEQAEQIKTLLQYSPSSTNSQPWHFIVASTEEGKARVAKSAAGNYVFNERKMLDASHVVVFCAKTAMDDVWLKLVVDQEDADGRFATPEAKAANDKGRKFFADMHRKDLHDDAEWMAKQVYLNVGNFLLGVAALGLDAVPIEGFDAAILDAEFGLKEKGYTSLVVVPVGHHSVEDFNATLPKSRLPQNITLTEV

[10] = tested on: mixtures of the cell lines THP1^wt and THP1‐NTR^+; test: Bystander effect in the CFU assay; format: cell-based; details: at 1.0 μM
[11] = 240 h, read-out: THP1^wt CFU EC50
[12] = read-out: THP1^wt CFU EC50, 10 days

| Molecule | EC50 (THP1^wt cells [2]; Homo sapiens) | EC50 (THP1‐NTR^+ cells [3]; Homo sapiens) | EC50 (THP1^wt cells [4]; [11]) | EC50 (THP1‐NTR^+ cells [5]; 240 h) | EC50 (THP1^wt cells [2]; FACS) | EC50 (THP1^wt cells [4]; [12]) | EC50 (THP1‐NTR^+ cells [5]; 10 days) | cytotoxicity in THP1‐NTR^+ (in words) (THP1‐NTR^+ cells [1]) | cytotoxicity in THP1^wt (in words) (THP1^wt cells [6]) | Selectivity window THP1^wt / THP1‐NTR^+ (THP1‐NTR^+ cells [3]) | Selectivity window THP1^wt / THP1‐NTR^+ (THP1‐NTR^+ cells [5]) | probe conversion in NTR-expressing THP1 cells (in words) (THP1‐NTR^+ cells [7]) | probe conversion in nontransfected THP1^wt cells (in words) (THP1^wt cells [8]) | further results |
| --- | --- | --- | --- | --- | --- | --- | --- | --- | --- | --- | --- | --- | --- | --- |
| COc1ncccc1CN[C@@H]1C[C@H]1c1ccccc1 (racemic) [1 a, trans‐N‐((2‐Methoxypyridin‐3‐yl) methyl)‐2‐phenylcyclopropan‐1‐amine, reference compound] | 3 ± 0.3 nM | 4.1 ± 0.4 nM | 60 ± 20 nM | 40 ± 10 nM |  |  |  | no cytotoxic effect | no cytotoxic effect |  |  |  |  | EC50 (THP1^wt cells [4]; read-out: colony formation EC50): 68 ± 12 nM |
| N#Cc1nc2ccc(OCc3ccc([N+](=O)[O-])s3)cc2s1 [compound 4, 6‐((5‐Nitrothiophen‐2‐yl)methoxy)benzo[d]thiazole‐2‐carbonitrile] |  |  |  |  |  |  |  |  |  |  |  | converted to luciferin | no activation |  |
| CN(CCN(C)C(=O)Oc1ccc2nc(C#N)sc2c1)C(=O)OCc1ccc([N+](=O)[O-])s1 [compound 5, 2‐Cyanobenzo[d]thiazol‐6‐yl ((5‐nitrothiophen‐2‐yl)methyl) ethane‐1,2‐diylbis(methyl carbamate)] |  |  |  |  |  |  |  |  |  |  |  | converted to luciferin | no activation | factor by which conversion exceeds that of probe 4 (recombinant NTR): at least 5 |
| (1‐Methyl‐2‐nitro‐1H‐imidazol‐5‐yl)methyl((2‐methoxypyridin‐3‐yl)methyl) ((1S*,2R*)‐2‐phenylcyclopropyl)carbamate [1 f] |  |  |  |  | 376 ± 17 nM | 4400 ± 700 nM | 330 ± 70 nM | cytotoxic effects |  | 66±8 | 14±4 |  |  | EC50 (THP1‐NTR^+ cells [3]; FACS): 5.7 ± 0.4 nM; effect on colony formation in THP1^wt (in words) (THP1^wt cells [4]): no effect in THP1^wt up to 2 μM; % conversion to 1a (fragmentation) ([9]; HPLC of Fmoc derivative 3 after NTR reaction, Figure 3C): 59.3%; factor of prodrug fragmentation relative to 4-nitrobenzyl 1 b ([9]; calculated from fragmentation data, Figure 3D): 17 x; bystander effect in the CFU assay [10]: no bystander effect |

Continued, in another order:

| EC50 (THP1^wt cells [2]; Homo sapiens) | EC50 (THP1‐NTR^+ cells [3]; Homo sapiens) | EC50 (THP1^wt cells [4]; [11]) | EC50 (THP1‐NTR^+ cells [5]; 240 h) | EC50 (THP1^wt cells [2]; FACS) | EC50 (THP1^wt cells [4]; [12]) | EC50 (THP1‐NTR^+ cells [5]; 10 days) | Molecule | cytotoxicity in THP1‐NTR^+ (in words) (THP1‐NTR^+ cells [1]) | cytotoxicity in THP1^wt (in words) (THP1^wt cells [6]) | Selectivity window THP1^wt / THP1‐NTR^+ (THP1‐NTR^+ cells [3]) | Selectivity window THP1^wt / THP1‐NTR^+ (THP1‐NTR^+ cells [5]) | probe conversion in NTR-expressing THP1 cells (in words) (THP1‐NTR^+ cells [7]) | probe conversion in nontransfected THP1^wt cells (in words) (THP1^wt cells [8]) | further results |
| --- | --- | --- | --- | --- | --- | --- | --- | --- | --- | --- | --- | --- | --- | --- |
| 17600 nM | 15300 nM | 45500 ± 3200 nM | 32400 ± 1700 nM |  |  |  | COc1ncccc1CN[C@H]1[C@@H](C)[C@@H]1c1ccccc1 (relative stereo) [2 a, (1S*,2S*,3R*)‐N‐((2‐Methoxypyridin‐3‐yl) methyl)‐2‐methyl‐3‐phenylcyclo propan‐1‐amine] | no cytotoxic effect | no cytotoxic effect | 1±1 | 1±1 |  |  | LSD1 inhibition (in words) (LSD1): lack inhibitory activity on LSD1 in the low micromolar range; also recorded: inactive on LSD1 below 10 μM; THP1‐NTR^+ CD86^+ cells (THP1‐NTR^+ cells [3]; at 10 μM): 34% |
|  |  |  |  | > 50000 nM | > 50000 nM | 900 ± 200 nM | (1‐Methyl‐2‐nitro‐1H‐imidazol‐5‐yl)methyl((2‐methoxypyridin‐3‐yl)methyl) ((1S*,2S*,3R*)‐2‐methyl‐3‐phenylcyclopropyl)carbamate [2 f] | cytotoxicity |  |  | >58±13 |  |  |  |
